Consider 18 compounds from patent US10654834B2 (Venenum Biodesign, LLC, priority 2016, dated 2020).

In one assay the target is T1, mouse TGR5 receptor (Mus musculus, UniProt Q80SS6).
T1 construct: host or cells: HEK293-EBNA (293 c18, ATCC CRL10852)
T1 sequence (Q80SS6 1-329): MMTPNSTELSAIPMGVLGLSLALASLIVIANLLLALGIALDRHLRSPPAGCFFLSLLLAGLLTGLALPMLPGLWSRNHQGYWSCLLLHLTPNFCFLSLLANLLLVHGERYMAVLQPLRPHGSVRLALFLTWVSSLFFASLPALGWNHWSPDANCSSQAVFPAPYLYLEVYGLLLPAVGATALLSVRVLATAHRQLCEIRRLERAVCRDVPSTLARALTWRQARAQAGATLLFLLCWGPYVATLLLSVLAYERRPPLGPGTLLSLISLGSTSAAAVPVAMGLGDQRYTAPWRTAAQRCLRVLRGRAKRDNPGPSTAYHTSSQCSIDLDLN
Briefly: Mouse TGR5 HTRF cAMP production assay (HEK293-EBNA cells, Cisbio cAMP HiRange kit). The format is cell-based. The note with it: HEK293-EBNA cells overexpressing mouse TGR5, HTRF cAMP assay. Put shortly: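 cAMP accumulation was read by competitive HTRF after 1 h room-temperature compound treatment, with a further 1 h conjugate incubation. Cells were mouse TGR5-overexpressing HEK293-EBNA in serum-free DMEM plus 500 μM IBMX. Compounds ran as 12-point half-log series in duplicate, and EC50 values were reported.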

The subject of another assay is Mouse STC-1 cells. Kind of assay: STC-1 GLP-1 assay (GLP-1 secretion). The format is cell-based. Particulars: Mouse STC-1 cells, GLP-1 secretion, 2 h; read-out: Mouse STC-1 HTRF GLP-1 Activity (EC50). The method in brief:
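Secreted active GLP-1 was measured by HTRF after overnight room-temperature incubation of supernatant with the conjugates. Supernatants came from a 2 h, 37° C. compound exposure (12-point half-log series) in HBSS with DPP-IV and protease inhibitors and 0.1% fatty acid free BSA. STC-1 cells had been seeded two days earlier in stripped-serum DMEM; EC50 reported.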
On the technique in general: In TR-FRET formats the signal depends on donor and acceptor labels being close together.

The term EC50 denotes the concentration at which the effect is half-maximal.

In the case of `N#Cc1ccc(CCNC(=O)[C@@H]2CCN2c2cc(N3CCC(CCNC(=O)NCCNC(=N)N)CC3)nc(C(F)(F)F)n2)cc1` [Compound 286, (S)-N-(4-cyanophenethyl)-1-(6-(4-(2-(3-(2-guanidinoethyl)-ureido)ethyl)piperidin-1-yl)-2-(trifluoromethyl)pyrimidin-4-yl)azetidine-2-carboxamide], the EC50 is below 100 nM on mouse TGR5 receptor and 100 to 999 nM in the assay with Mouse STC-1 cells.

With `N#Cc1ccc(CCNC(=O)[C@@H]2CCN2c2cc(N3CCC(CCNC(=O)NCCOCCNC(=N)N)CC3)nc(C(F)(F)F)n2)cc1` [Compound 287, (S)-1-(6-(4-(1-amino-1-imino-9-oxo-5-oxa-2,8,10-triazadodecan-12-yl)piperidin-1-yl)-2-(trifluoromethyl)pyrimidin-4-yl)-N-(4-cyanophenethyl)azetidine-2-carboxamid], the concentration for a half-maximal effect (EC50) at mouse TGR5 receptor and in the assay with Mouse STC-1 cells was below 100 nM each time.

With `CS(=O)(=O)NCCOCCNC(=O)NCCC1CCN(c2cc(N3CC[C@H]3C(=O)NCCc3ccc(C#N)cc3)nc(C(F)(F)F)n2)CC1` [Compound 292, (S)-N-(4-cyanophenethyl)-1-(6-(4-(2-(3-(2-(2-(methylsulfonylamino)-ethoxy)ethyl)ureido)ethyl)piperidin-1-yl)-2-(trifluoromethyl)pyrimidin-4-yl)azetidine-2-carboxamide], the EC50 on mouse TGR5 receptor was below 100 nM; with Mouse STC-1 cells, 100 to 999 nM.

For `O=C(O)CC[C@@H](NC(=O)CCCC1CCN(c2cc(N3CC[C@H]3C(=O)NCCc3ccc(C(F)(F)F)cc3)nc(C(F)(F)F)n2)CC1)C(=O)O` [Compound 294, (R)-2-(4-(1-(2-(trifluoromethyl)-6-((S)-2-((4-(trifluoromethyl)-phenethyl)carbamoyl)azetidin-1-yl)pyrimidin-4-yl)piperidin-4-yl)butanamido)pentanedioic acid], the EC50 on mouse TGR5 receptor and in the assay on Mouse STC-1 cells was below 100 nM throughout.

With `N#Cc1ccc(CCNC(=O)[C@@H]2CCN2c2cc(N3CCC(CCNc4c(NCCS(=O)(=O)O)c(=O)c4=O)CC3)nc(C(F)(F)F)n2)cc1` [Compound 297, (S)-2-((2-((2-(1-(6-(2-((4-cyanophenethyl)carbamoyl)azetidin-1-yl)-2-(trifluoromethyl)pyrimidin-4-yl)piperidin-4-yl)ethyl)amino)-3,4-dioxocyclobut-1-en-1-yl)amino)ethanesulfonic acid], the half-maximal effective concentration (EC50) is below 100 nM on mouse TGR5 receptor and 100 to 999 nM in the assay with Mouse STC-1 cells.

For the compound `N#Cc1ccc(CCNC(=O)[C@@H]2CCN2c2cc(N3CCC(CCNc4c(NCC(=O)O)c(=O)c4=O)CC3)nc(C(F)(F)F)n2)cc1` [Compound 302, (S)-2-((2-((2-(1-(6-(2-((4-cyanophenethyl)carbamoyl)azetidin-1-yl)-2-(trifluoromethyl)pyrimidin-4-yl)piperidin-4-yl)ethyl)amino)-3,4-dioxocyclobut-1-en-1-yl)amino)acetic acid], the EC50 at mouse TGR5 receptor and in the assay with Mouse STC-1 cells was below 100 nM each time.

On to `O=C(O)CCCC1CCN(c2cc(N3CCC[C@@H](C(=O)NCCc4ccc(C(F)(F)F)cc4)C3)nc(C(F)(F)F)n2)CC1` [Compound 330, (R)-4-(1-(2-(trifluoromethyl)-6-(3-((4-(trifluoromethyl)phenethyl)carbamoyl)piperidin-1-yl)pyrimidin-4-yl)piperidin-4-yl)butanoic acid], for which the figures for the EC50 on mouse TGR5 receptor and in the assay on Mouse STC-1 cells were below 100 nM and 100 to 999 nM, respectively.

For the compound `N#Cc1ccc(CCNC(=O)[C@@H]2CCCN(c3cc(N4CCC(CCNC(=O)NCCC(=O)O)CC4)nc(C(F)(F)F)n3)C2)cc1` [Compound 347, (R)-3-(3-(2-(1-(6-(3-((4-cyanophenethyl)carbamoyl)piperidin-1-yl)-2-(trifluoromethyl)pyrimidin-4-yl)piperidin-4-yl)ethyl)ureido)propanoic acid], the EC50 was below 100 nM at mouse TGR5 receptor and 100 to 999 nM in the assay on Mouse STC-1 cells.

As for `N#C/N=C(\NCCC(=O)O)NCCC1CCN(c2cc(N3CC[C@H]3C(=O)NCCc3ccc(C#N)cc3)nc(C(F)(F)F)n2)CC1` [Compound 351, (S,Z)-3-(2-cyano-3-(2-(1-(6-(2-((4-cyanophenethyl)carbamoyl)azetidin-1-yl)-2-(trifluoromethyl)pyrimidin-4-yl)piperidin-4-yl)ethyl)guanidino)propanoic acid], the EC50 on mouse TGR5 receptor and in the assay with Mouse STC-1 cells was below 100 nM in each case.

Consider `N#Cc1ccc(CCNC(=O)[C@@H]2CCN2c2cc(N3CCC(CCNC(=O)NCCOCCNC(=O)CS(=O)(=O)O)CC3)nc(C(F)(F)F)n2)cc1` [Compound 356, (S)-1-(1-(6-(2-((4-cyanophenethyl)carbamoyl)azetidin-1-yl)-2-(trifluoromethyl)pyrimidin-4-yl)piperidin-4-yl)-4,12-dioxo-8-oxa-3,5,11-triazatridecane-13-sulfonic acid], for which the EC50 on mouse TGR5 receptor was below 100 nM; with Mouse STC-1 cells, 100 to 999 nM.

Regarding `N#Cc1ccc(CCNC(=O)[C@@H]2CCN2c2cc(N3CCC(CCNC(=O)NCCOCCNC(=O)NCCS(=O)(=O)O)CC3)nc(C(F)(F)F)n2)cc1` [Compound 358, (S)-15-(1-(6-(2-((4-cyanophenethyl)carbamoyl)azetidin-1-yl)-2-(trifluoromethyl)pyrimidin-4-yl)piperidin-4-yl)-4,12-dioxo-8-oxa-3,5,11,13-tetraazapentadecane-1-sulfonic acid], the EC50 at mouse TGR5 receptor and in the assay with Mouse STC-1 cells was below 100 nM throughout.

Turning to `N#Cc1ccc(CCNC(=O)[C@@H]2CCN2c2cc(N3CCC(CCNC(=O)NCCOCCNC(=O)NCCC(=O)O)CC3)nc(C(F)(F)F)n2)cc1` [Compound 360, (S)-1-(1-(6-(2-((4-cyanophenethyl)carbamoyl)azetidin-1-yl)-2-(trifluoromethyl)pyrimidin-4-yl)piperidin-4-yl)-4,12-dioxo-8-oxa-3,5,11,13-tetraazahexadecan-16-oic acid], the EC50 at mouse TGR5 receptor and with Mouse STC-1 cells was below 100 nM in each case.

Turning to `N#Cc1ccc(CCNC(=O)[C@@H]2CCN2c2cc(N3CCC(CCCC(=O)NCP(=O)(O)O)CC3)nc(C(F)(F)F)n2)cc1` [Compound 362, (S)-((4-(1-(6-(2-((4-cyanophenethyl)carbamoyl)azetidin-1-yl)-2-(trifluoromethyl)pyrimidin-4-yl)piperidin-4-yl)butanamido)methyl)phosphonic acid], the EC50 on mouse TGR5 receptor and in the assay with Mouse STC-1 cells was below 100 nM in each case.

In the case of `N#Cc1ccc(CCNC(=O)[C@@H]2CCN2c2cc(N3CCC(CCNS(=O)(=O)CCNC(=O)[C@@H](N)CS(=O)(=O)O)CC3)nc(C(F)(F)F)n2)cc1` [Compound 363, (R)-2-amino-3-((2-(N-(2-(1-(6-((S)-2-((4-cyanophenethyl)carbamoyl)azetidin-1-yl)-2-(trifluoromethyl)pyrimidin-4-yl)piperidin-4-yl)ethyl)sulfamoyl)ethyl)amino)-3-oxopropane-1-sulfonic acid], the EC50 at mouse TGR5 receptor and in the assay with Mouse STC-1 cells was below 100 nM throughout.

Regarding `N#Cc1ccc(CCNC(=O)[C@@H]2CCCN2c2cc(N3CCC(CCNc4c(NCCS(=O)(=O)O)c(=O)c4=O)CC3)nc(C(F)(F)F)n2)cc1` [Compound 367, (S)-2-((2-((2-(1-(6-(2-((4-cyanophenethyl)carbamoyl)pyrrolidin-1-yl)-2-(trifluoromethyl)pyrimidin-4-yl)piperidin-4-yl)ethyl)amino)-3,4-dioxocyclobut-1-en-1-yl)amino)ethanesulfonic acid], the concentration for a half-maximal effect (EC50) on mouse TGR5 receptor was below 100 nM; with Mouse STC-1 cells, 100 to 999 nM.

Regarding `N#Cc1ccc(CCNC(=O)[C@@H]2CCCN2c2cc(N3CCC(CCNc4c(NCCC(=O)O)c(=O)c4=O)CC3)nc(C(F)(F)F)n2)cc1` [Compound 368, (S)-3-((2-((2-(1-(6-(2-((4-cyanophenethyl)carbamoyl)pyrrolidin-1-yl)-2-(trifluoromethyl)pyrimidin-4-yl)piperidin-4-yl)ethyl)amino)-3,4-dioxocyclobut-1-en-1-yl)amino)propanoic acid], the EC50 at mouse TGR5 receptor is below 100 nM; in the assay with Mouse STC-1 cells, 100 to 999 nM.

Turning to `N#Cc1ccc(CCNC(=O)[C@@H]2CCCN2c2cc(N3CCC(CCNc4c(NCP(=O)(O)O)c(=O)c4=O)CC3)nc(C(F)(F)F)n2)cc1` [Compound 369, (S)-(((2-((2-(1-(6-(2-((4-cyanophenethyl)carbamoyl)pyrrolidin-1-yl)-2-(trifluoromethyl)pyrimidin-4-yl)piperidin-4-yl)ethyl)amino)-3,4-dioxocyclobut-1-en-1-yl)amino)methyl)phosphonic acid], the figures for the EC50 on mouse TGR5 receptor and in the assay with Mouse STC-1 cells were below 100 nM and 100 to 999 nM, respectively.

In the case of `N#Cc1ccc(CCNC(=O)[C@@H]2CCCN2c2cc(N3CCC(CCNC(=O)NCP(=O)(O)O)CC3)nc(C(F)(F)F)n2)cc1` [Compound 372, (S)-((3-(2-(1-(6-(2-((4-cyanophenethyl)carbamoyl)pyrrolidin-1-yl)-2-(trifluoromethyl)pyrimidin-4-yl)piperidin-4-yl)ethyl)ureido)methyl)phosphonic acid], the EC50 at mouse TGR5 receptor and with Mouse STC-1 cells was below 100 nM throughout.
